In ChEMBL document CHEMBL1149492, “Discovery of potent and stable conformationally constrained analogues of the MCH R1 antagonist SB-568849” (Bioorg Med Chem Lett, 2006):

Assays:
[1] = molecular target: Melanin-concentrating hormone receptor 1 (Homo sapiens, UniProt Q99705); assay: Displacement of radiolabeled iodo-MCH from human MCHR1 expressed in HEK293 cells; format: cell-based
[2] = Stability in aqueous phosphate buffer at pH 7; format: physicochemical
[3] = test system: Liver microsomes; assay: Intrinsic clearance in human liver microsome; format: ADME

Melanin-concentrating hormone receptor 1, sequence (Q99705 whole entry): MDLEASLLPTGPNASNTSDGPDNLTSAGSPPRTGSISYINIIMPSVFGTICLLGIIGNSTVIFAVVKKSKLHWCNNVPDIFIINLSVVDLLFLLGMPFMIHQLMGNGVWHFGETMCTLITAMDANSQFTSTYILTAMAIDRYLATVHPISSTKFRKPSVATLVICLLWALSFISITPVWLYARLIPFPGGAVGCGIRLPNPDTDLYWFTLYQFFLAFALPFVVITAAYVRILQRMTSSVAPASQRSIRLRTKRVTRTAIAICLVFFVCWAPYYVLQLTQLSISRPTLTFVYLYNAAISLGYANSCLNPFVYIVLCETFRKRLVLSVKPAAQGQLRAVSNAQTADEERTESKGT

COc1cc(NC(=O)c2ccc(C3CCCCC3)cc2)ccc1O[C@H]1CCCC[C@@H]1N(C)C
Ki [1]: 2510 nM

COc1cc(-n2cnc3ccc(-c4ccc(Cl)cc4)cc3c2=O)ccc1OCCN1CCCC1
Ki [1]: 1000 nM

CCN1CCN(c2ccc(NC(=O)c3ccc(C4CCCCC4)cc3)cc2OC)CC1
Ki [1]: 79.4 nM

O=C(Nc1ccc(OCCN2CCCC2)cc1)c1ccc2oc3ccccc3c2c1
Ki [1]: 2510 nM

COc1cc(-n2nnc3ccc(Oc4ccccc4)cc3c2=O)ccc1OCCN1CCCC1
Ki [1]: 39.8 nM

COc1cc(N2Cc3ccc(-c4ccccc4)cc3C2=O)ccc1OCCN(C(C)C)C(C)C
Ki [1]: 398 nM

COc1cc(-n2cnc3ccc(Oc4ccccc4)cc3c2=O)ccc1OCCN1CCCC1
Ki [1]: 316 nM

COc1cc(N2C(=O)c3ccc(-c4ccccc4)cc3C2=O)ccc1OCCN(C(C)C)C(C)C
Ki [1]: 126 nM

COc1cc(NC(=O)c2ccc(C3CCCCC3)cc2)ccc1OC[C@@H]1CCCN1C
Ki [1]: 39.8 nM

COc1cc(NC(=O)c2ccc(C3CCCCC3)cc2)ccc1OC[C@H]1CCCN1C
Ki [1]: 79.4 nM

COc1cc(NC(=O)c2ccc(C3CCCCC3)cc2)ccc1OC12CCCN(CC1)C2 (centres undefined)
Ki [1]: 50.1 nM

COc1cc(N2C(=O)c3ccc(Oc4ccccc4)cc3C2=O)ccc1OCCN1CCCC1
Activity [2]: Not Active

COc1cc(N(C)C(=O)c2ccc3oc4ccccc4c3c2)ccc1OCCN(C(C)C)C(C)C
Ki [1]: 2000 nM

COc1cc(NC(=O)c2ccc(C3CCCCC3)cc2)ccc1OC1CCN(C)C1 (centres undefined)
Ki [1]: 63.1 nM

COc1cc(-n2nnc3cc(Oc4ccccc4)ccc3c2=O)ccc1OCCN1CCCC1
Ki [1]: 79.4 nM

O=C(Nc1ccc(OCCN2CCCC2)cc1)c1ccc2c(c1)CCc1ccccc1-2
Ki [1]: 1000 nM

COc1cc(-n2cnc3sc(-c4ccccc4)cc3c2=O)ccc1OCCN1CCCC1
Ki [1]: 794 nM

COc1cc(-n2cnc3cc(-c4ccccc4)ccc3c2=O)ccc1OCCN1CCCC1
Ki [1]: 20 nM | CL [3]: < 1.5 mL/min/g | Stability [2]: Stable

COc1cc(N2C(=O)c3ccc(Nc4ccccc4)cc3C2=O)ccc1OCCN1CCCC1
Ki [1]: 15.8 nM | Activity [2]: Not Active

COc1cc(N2C(=O)c3ccc(Sc4ccccc4)cc3C2=O)ccc1OCCN1CCCC1
Ki [1]: 31.6 nM | Activity [2]: Not Active

O=C(Nc1ccc(OCCN2CCCC2)cc1)c1ccc2c(c1)Cc1ccccc1-2
Ki [1]: 501 nM

COc1cc(-n2nnc3cc(-c4ccccc4)ccc3c2=O)ccc1OCCN1CCCC1
Ki [1]: 25.1 nM | CL [3]: < 1.5 mL/min/g | Stability [2]: Stable

COc1cc(-n2cnc3cc(-c4ccccc4)sc3c2=O)ccc1OCCN1CCCC1
Ki [1]: 20 nM | Stability [2]: Stable

CC(C)N(CCOc1ccc(N(C)C(=O)c2ccc3c(c2)Cc2ccccc2-3)cc1)C(C)C
Ki [1]: 398 nM

CC(C)N(CCOc1ccc(NC(=O)c2ccc3c(c2)C(=O)c2ccccc2-3)cc1)C(C)C
Ki [1]: 200 nM

COc1cc(-n2cnc3cc(Oc4ccccc4)ccc3c2=O)ccc1OCCN1CCCC1
Ki [1]: 50.1 nM

CC(C)N(CCOc1ccc(N(C)C(=O)c2ccc3c(c2)CCc2ccccc2-3)cc1)C(C)C
Ki [1]: 316 nM
